The values that follow come from patent US5648378A, “2-iminochromene derivatives as inhibitors of protein tyrosine kinase” (Research Corporation Technologies, Inc., priority 1995, dated 1997).

For assay [1], the target named is T1, p60^c-src (Homo sapiens, UniProt P12931).
T1 construct: purchased Upstate Biotechnology Inc
The assay is described as follows: kinase assay, purified p60c-src, poly [Glu,Tyr](4:1) substrate. Format: biochemical. Conditions: for IC50, p60^c-src: purified kinase, poly [Glu,Tyr](4:1) substrate. The method, then:
(§1) Purified p60^c-scr and Src-family kinases p56^lck, p56^lyn, and p55^fyn were obtained from Upstate Biotechnology Inc. Kinase assays were performed as described by A. Gezit, J. Med.

The target of assay [2] is T2, p56^lck (Homo sapiens, UniProt P06239).
T2 construct: purchased Upstate Biotechnology Inc
As to the kind of experiment: kinase assay, p56lck. Format: biochemical. The following applies: poly [Glu,Tyr](4:1) substrate. The method, then: as §1

In assay [3] the test system is HL-60 cells. The assay is described as follows: cell growth inhibition, HL-60 promyelocytic leukemia. It counts as cell-based. The following applies: Homo sapiens, HL-60, 72 h; 3 days, Trypan Blue viable cell count. On the procedure:
(§2) The source of the cancer cell lines were: HL-60, HT-29, and BT-20, from American Type Culture Collection, Rockville, Maryland; A-1 from Dr. M. H. Freedman, MG-63, from Dr. M. Hurley, and human fibroblast from Dr. R. Zeff. Cells were grown in the culture treated with or without various compounds for 3 days. Cells (except BT-20) were then recovered and treated with Trypan Blue and the number of viable cells counted. For BT-20 cells, a new rapid and simple method using Alamar Blue Assay was used, as described by S. A. Ahmed et al., J. Immunol. Meth., 170, 211 (1994). The symbol i on the Table indicates "not
(§3) As shown on Table 3, several compounds of formula (I) were tested for their ability to inhibit the growth of human cancer cells including promyelocytic leukemia HL-60 cells (S. J. Collins et al., Blood, 70, 1233 (1987)); acute lymphocytic leukemia A-1 cells, (S. Kamel-Reid et al., Leukemia, 6, 8 (1992)); human osteosarcoma MG-63, (A. Pirskanen et al., J. Bone and Mineral Res., 1635 (1994)); human breast carcinoma BT-20 (G. G. Castles et al., Cancer Res., 58, 5934 (1992)); and human colon adenocarcinoma HT-29 cells (R. Garcia et al., Oncogene, 6, 1983 (1991)).

For assay [4], the system named is A-1 cells. As to the kind of experiment: cell growth inhibition, A-1 acute lymphocytic leukemia. Format: cell-based. The following applies: Homo sapiens, 72 h; 3 days, Trypan Blue viable cell count. The method, then: as §2
The test system of assay [5] is HT-29 cells. The assay is described as follows: cell growth inhibition, HT-29 colon adenocarcinoma. Format: cell-based. Conditions: Homo sapiens, HT-29, 72 h; 3 days, Trypan Blue viable cell count. The method, then:
as §2, §3

In assay [6] the test system is human cancer cells (HL-60, A-1, MG-63, BT-20, HT-29). The assay is described as follows: inhibition of growth of human cancer cell lines, overall comparison. It counts as cell-based. The following applies: 9TA, 18TA compared with e.g. 9TO, 18TO. The method, then:
as §2, §3

Assay [7] concerns the target T3, p56^lyn (Homo sapiens, UniProt P07948).
T3 construct: purchased Upstate Biotechnology Inc
The assay is described as follows: kinase assay, p56lyn. It counts as biochemical. The following applies: poly [Glu,Tyr](4:1) substrate. On the procedure: as §1

Assay [8] has as its target p55^fyn. The assay is described as follows: kinase assay, p55fyn. Format: biochemical. The following applies: poly [Glu,Tyr](4:1) substrate. The method, then:
as §1

In assay [9] the test system is melanoma. The following applies: 50 mg/day; Thornes et al. (1994); cited from earlier work.

Converted amounts (≈) assume the structure as drawn.

T1 sequence (P12931 whole entry): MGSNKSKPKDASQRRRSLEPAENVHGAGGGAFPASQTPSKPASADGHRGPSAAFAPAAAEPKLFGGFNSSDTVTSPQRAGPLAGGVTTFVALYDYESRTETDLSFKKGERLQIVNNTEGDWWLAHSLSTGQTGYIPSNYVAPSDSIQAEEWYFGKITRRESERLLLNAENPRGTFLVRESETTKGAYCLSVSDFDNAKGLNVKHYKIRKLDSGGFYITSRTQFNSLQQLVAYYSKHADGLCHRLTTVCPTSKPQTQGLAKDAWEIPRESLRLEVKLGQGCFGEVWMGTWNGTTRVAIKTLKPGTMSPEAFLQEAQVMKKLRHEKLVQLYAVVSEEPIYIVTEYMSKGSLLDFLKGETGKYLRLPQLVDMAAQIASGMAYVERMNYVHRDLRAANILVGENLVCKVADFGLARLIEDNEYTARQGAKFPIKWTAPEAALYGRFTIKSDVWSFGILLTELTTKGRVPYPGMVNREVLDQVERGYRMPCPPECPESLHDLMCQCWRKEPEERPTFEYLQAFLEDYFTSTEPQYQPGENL
T2 sequence (P06239 whole entry, species assumed): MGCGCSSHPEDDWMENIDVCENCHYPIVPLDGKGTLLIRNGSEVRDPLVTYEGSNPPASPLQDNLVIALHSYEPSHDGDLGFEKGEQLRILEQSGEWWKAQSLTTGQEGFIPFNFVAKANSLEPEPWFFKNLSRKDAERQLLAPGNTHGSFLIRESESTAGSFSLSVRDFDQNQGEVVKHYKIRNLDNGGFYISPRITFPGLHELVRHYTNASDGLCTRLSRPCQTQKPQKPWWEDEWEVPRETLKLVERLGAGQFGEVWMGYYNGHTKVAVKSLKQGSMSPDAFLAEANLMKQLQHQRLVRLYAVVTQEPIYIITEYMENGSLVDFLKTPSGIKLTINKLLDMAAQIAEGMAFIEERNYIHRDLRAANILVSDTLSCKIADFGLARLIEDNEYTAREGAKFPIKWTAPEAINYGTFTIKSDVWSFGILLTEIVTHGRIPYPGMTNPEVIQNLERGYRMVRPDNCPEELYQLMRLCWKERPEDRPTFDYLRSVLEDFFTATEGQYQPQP
T3 sequence (P07948 whole entry, species assumed): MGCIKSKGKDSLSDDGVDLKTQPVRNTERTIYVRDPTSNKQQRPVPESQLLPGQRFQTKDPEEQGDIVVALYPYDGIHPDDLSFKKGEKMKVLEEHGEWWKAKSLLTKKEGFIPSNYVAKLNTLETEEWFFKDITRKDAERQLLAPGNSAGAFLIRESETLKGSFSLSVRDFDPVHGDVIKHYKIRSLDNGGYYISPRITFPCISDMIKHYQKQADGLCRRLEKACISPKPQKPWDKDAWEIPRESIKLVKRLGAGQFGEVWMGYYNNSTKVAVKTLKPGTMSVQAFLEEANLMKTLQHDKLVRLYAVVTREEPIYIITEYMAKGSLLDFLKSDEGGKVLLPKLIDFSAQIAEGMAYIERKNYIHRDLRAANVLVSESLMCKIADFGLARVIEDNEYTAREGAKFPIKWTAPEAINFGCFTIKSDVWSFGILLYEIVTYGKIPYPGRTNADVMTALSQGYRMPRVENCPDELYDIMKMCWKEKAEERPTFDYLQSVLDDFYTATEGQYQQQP

Regarding `N=c1oc2c(O)cccc2cc1C(=O)Nc1cccc(O)c1` [Compound 9TA], the “inhibition of p60^c-src kinase (in words)” value in assay [1] is reported as “strong inhibitory effect”. Also, the “IC50, p60^c-src” value in [1] is 0.035 mg/L (≈ 0.118 µM). Also, in assay [2], the “IC50, p56^lck” value was determined as 0.62 mg/L (≈ 2.09 µM). For the same molecule, the IC50 in [3] was found to be 10 mg/L (≈ 33.8 µM); in assay [4], 6 mg/L (≈ 20.3 µM); in [5], 20 mg/L (≈ 67.5 µM). Besides, the “inhibition of cancer cell growth (in words)” value in assay [6] is reported as “not as potent”.
As for `N=c1oc2c(O)c(O)ccc2cc1C(=O)Nc1cccc(O)c1` [Compound 18TA], in assay [1], the “inhibition of p60^c-src kinase (in words)” value was “strong inhibitory effect”. Moreover, the “fold more potent than 18AN” value in assay [1] (p60^c-src, versus 18AN) stood at 88 fold. In addition, in assay [1], the “IC50, p60^c-src” value stood at 0.225 mg/L (≈ 0.721 µM). Besides, the “IC50, p56^lck” value in [2] amounted to 20 mg/L (≈ 64 µM). Besides, in assay [7], the “IC50, p56^lyn” value is 18 mg/L (≈ 57.6 µM). Besides, the “IC50, p55^fyn” value in [8] was above 20 mg/L. The IC50 in assay [3] was 9 mg/L (≈ 28.8 µM); in [4] it was 20 mg/L (≈ 64 µM); in [5] it was above 20 mg/L. Further, the “inhibition of cancer cell growth (in words)” value in [6] is “not as potent”.
With `O=c1ccc2ccccc2o1` [coumarin], in assay [9], the “effect against melanoma (in words)” value was “effective against melanoma”.

In general, IC50 refers to the concentration that gives 50% inhibition. Read a high IC50 as a need for much substance.
